Test results published in US20100312139A1, “Method for Identifying Mammals at Risk for Elevated intracranial Pressure” (BOARD OF REGENTS OF THE UNIVERSITY OF TEXAS SYSTEM, priority 2009, published 2010).

System: TBI-associated cerebral edema, controlled cortical impact model
Assay: Cerebral edema as percentage brain water content (wet-dry method) after controlled cortical impact brain injury
Assay type: in vivo
Conditions: rat, 400 mg/kg administered 30 minutes after cortical impact injury, measured 24 hr after injury, versus control animals
Method: A number of studies have reported that blood-brain barrier compromise and cerebral edema are key contributors to the elevation of ICP. Penicillamine is a copper scavenger that is FDA approved for the treatment of Wilson's disease. Therefore penicillamine was used in this study to determine if sequestration of copper would restore TBI-associated BBB permeability and cerebral edema. […] BBB permeability was assessed by measuring the extravasation of Evans Blue dye as described in Zhao, et al., 2007 (Zhao, J., Moore, A. N., Redell, J. B. and Dash, P. K. 2007. Enhancing expression of Nrf2-driven genes protects the blood brain barrier after brain injury. J. Neurosci. 27, 10240-10248).
Cerebral edema was assessed by determining the percentage brain water content using the wet-dry method as described previously (McIntosh, T. K., Soares, H., Thomas, M. and Cloherty, K. 1990. Development of regional cerebral oedema after lateral fluid-percussion brain injury in the rat. Acta Neurochir. Suppl (Wien.) 51, 263-264; Shohami, E., Novikov, M. and Mechoulam, R. 1993. A nonpsychotropic cannabinoid, HU-211, has cerebroprotective effects after closed head injury in the rat. J. Neurotrauma 10, 109-119). BBB permeability and cerebral edema were measured 24 hr after injury, in independent sets of animals.

CC(C)(S)[C@@H](N)C(=O)O [penicillamine, Penicillamine]
effect on cerebral edema (percentage brain water content): did not have any effect
